Consider twelve molecules from ChEMBL document CHEMBL1137965, “Crucial role of the peroxyketal function for antimalarial activity in the G-factor series” (Bioorg Med Chem Lett, 2004).

By IC50 is commonly meant the concentration that inhibits the measured activity by half.

In the assay the test system is Plasmodium falciparum. The experiment in a line: In vitro inhibition of Plasmodium falciparum in [3H]hypoxanthine incorporation assay. Format: functional, organism-based.
In turn, `CC1(C)C(=O)C2=C[C@](C)(CO)OO[C@]2(O)C(C)(C)C1=O` returned an IC50 above 100 µM.

Turning to `CC1(C)C(=O)C2=C[C@@](C)(CO)OO[C@]2(O)C(C)(C)C1=O`, the IC50 is above 100 µM.

As for `CO[C@]12OO[C@@](C)(CO)C=C1C(=O)C(C)(C)C(=O)C2(C)C`, the IC50 was 1.4 µM.

The molecule `CC(=O)OC12OOC(C)(C)C=C1C(=O)C(C)(C)C(=O)C2(C)C` (configuration not stated) had an IC50 of 20.5 µM.

Molecule `CC1(C)C=C2C(=O)C(C)(C)C(=O)C(C)(C)[C@@]2(O)OO1` came in with an IC50 of 36 µM.

Molecule `CC1(C)C=C2C(=O)C(C)(C)C(=O)C(C)(C)C2(F)OO1` (configuration not stated) showed an IC50 above 100 µM.

As to `C[C@@H]1CC[C@H]2[C@@H](C)C(=O)O[C@@H]3O[C@@]4(C)CC[C@@H]1[C@]32OO4` [ARTEMISININ], it took 0.015 µM to reach half-maximal inhibition (IC50).

The molecule `CO[C@]12OO[C@@](C)(CO[Si](c3ccccc3)(c3ccccc3)C(C)(C)C)C=C1C(=O)C(C)(C)C(=O)C2(C)C` registered an IC50 of 1.5 µM.

As to `CO[C@]12OO[C@](C)(CO)C=C1C(=O)C(C)(C)C(=O)C2(C)C`, the IC50 is 40 µM.

As to `CO[C@]12OOC(C)(C)C=C1C(=O)C(C)(C)C(=O)C2(C)C`, half-maximal inhibition (IC50) was put at 0.28 µM.

As for `CO[C@]12OO[C@](C)(CO[Si](c3ccccc3)(c3ccccc3)C(C)(C)C)C=C1C(=O)C(C)(C)C(=O)C2(C)C`, half-maximal inhibition (IC50) was put at 1.4 µM.

Turning to `CC1(C)C(=O)C2=C(OO[C@]3(C)CO[C@H]23)C(C)(C)C1=O`, the IC50 was above 100 µM.
